Laboratory results taken from publication PMC8958504 (Journal of Medicinal Chemistry, 2022).
Several values for one entry are separate records, joined by “and”; a condition that tells them apart may be missing. Equal entries are not always repeated. Entries after “also recorded” stand apart in the source; their conditions may differ.

How the values were obtained:
[1] = Oxygen radical absorbance capacity (ORAC-FL) assay; conditions: trolox = 1.0
adult mice NSCs = test: Neurogenic studies in SGZ-derived neurospheres; assay type: cell-based, mouse; conditions: 10 μM
Experimental: Adult mice NSCs were isolated from SGZ of the dentate gyrus of the hippocampus and grown as free-floating neurospheres (NS).[72],[78] The neurogenic potential of each compound was determined using fluorescence confocal microscopy by quantifying the expression of two well-known neuronal markers: human β-III-tubulin (TuJ-1 clone) and microtubule-associated protein 2 (MAP-2). TuJ-1 is expressed in immature neurons, whereas the expression of MAP-2 indicates a consolidated mature neuronal stage.[79] Given that neurogenesis involves not only the proliferation of NSC but also the migration of newly generated cells, the greatest migration distance promoted by each compound was also measured (Figure 8).
Adult male C57BL/6 mice (3 months old) were used in order to determine neurogenesis activity. […] DAPI staining was used as a nuclear marker. Fluorescent representative images were acquired with a Nikon fluorescence microscope 90i coupled to a digital camera Qi. The microscope configuration was adjusted to produce the optimum signal-to-noise ratio. […] Quantification was undertaken using the image analySIS software (Soft Imaging System Corp., Münster, Germany) and normalized to total nuclei (DAPI-stained). The intensity of immunostaining of neurites from TuJ1-labeled cells and the number of MAP-2-positive cells were estimated from nine neurospheres per condition over three independent experiments. The outgrowth of the neurosphere cells was examined under a phase-contrast microscope and the farthest distance of cell migration was calculated from the edge of the sphere. At least 10 plated neurospheres per treatment were analyzed.

Thermodynamic solubility = assay type: physicochemical; conditions: phosphate buffer pH 7.4
[2] = In vitro glutathione conjugation (LC-IT-MS); assay type: in vitro ADME; conditions: 100 μM, GSH 1 mM, with or without GST, 37 °C, 1 h
Experimental: As the control, nonenzymatic reaction (mixture lacking GST) was also performed.
The reaction was maintained at 37 °C for 1 h. As a control, the nonenzymatic reaction mixture (mixture lacking GST) was incubated for 1 h at 37 °C. The reactions were stopped by adding 100 μL of 20% trifluoroacetic acid. The samples were prepared for analysis by adding 400 μL of a 50:50 mixture of MeOH/CH3CN. The reaction mixtures were analyzed using an API QSTAR pulsar I LC–MS/MS system (Applied Biosystems, Madrid, Spain) equipped with an electrospray ionization source and connected to a LC system 1100 series (Agilent Technologies, Madrid, Spain). […] The LC-IT-MS was operated in the positive ion mode.

mouse hippocampal slices = conditions: 1 μM, OA 1 μM, 6 h
Experimental: Once the treatment was ended, the cell viability was measured by the MTT method, cell death with the fluorescent probe PI (1 μg/mL), and ROS production with the fluorescent probe H2DCFDA (10 μL/mL).
(§1) Fluorescence from whole slices was measured as the mean intensity with an inverted Nikon eclipse T2000-U microscope (Nikon Instruments). […] The results were normalized to the basal condition, which was considered as 100%. Image analysis was performed using Fiji software.

iNOS = test: Western blotting of iNOS in hippocampal slices exposed to OA; assay type: cell-based, mouse; conditions: hippocampal slices treated with OA
Source text: As iNOS can be produced through the NF-κB (nuclear factor kappa-light-chain-enhancer of activated B cells) pathway, we analyzed the levels of p65, one of the components that form the NF-κB transcription factor family.[82] […] We also measured HO-1, an inducible enzyme transcribed by NRF2, known for its anti-inflammatory, antioxidant, and neuroprotective effects. […] NRF2 and NF-κB signaling pathways cooperate to maintain the physiological homeostasis of cellular redox status and to regulate the cellular response to stress and inflammation.[19],[83] […] This last mechanism could be related to our resveratrol-based MTDL 4e.
After acute treatment, the hippocampal slices were lysed in a cold AKT lysis buffer (137 mM NaCl, 20 mM NaF, 10% glycerol, 20 mM Tris–HCl, 1% Nonidet P-40, 1 μg/mL leupeptin, 1 mM phenylmethylsulfonylfluoride, 1 mM sodium pyrophosphate, and 1 mM Na3VO4, pH 7.5). The total protein in each sample was quantified using the Pierce BCA protein kit (Thermo Fisher). 20 μg of protein was resolved by sodium dodecyl sulfate polyacrylamide gel electrophoresis (SDS-PAGE) and transferred to Immobilon-P PVDF membranes (Millipore Corp.). […] The membranes were washed, incubated with ECL WB Kit (GE Healthcare, Amersham), and exposed using a ChemiDoc MP system (Bio-Rad Laboratories) for the visualization of the specific bands, which were then analyzed with Fiji software.

[3] = test system: mice hippocampal organotypic cultures; test: Organotypic hippocampal culture, chronic OA treatment; assay type: cell-based, mouse; conditions: 1 μM, OA 10 nM, 72 h
Experimental: 6–10 days old mice (C57BL/6j) were sacrificed, and hippocampi were carefully removed in Hank’s balanced salt solution (HBBS). 300 μm slices were cut and placed in 0.4 μm culture inserts (Merck-Millipore, Germany) and stabilized for 24 h at 37 °C in neurobasal media (Gibco, Invitrogen) supplemented with 10% FBS (Gibco, Invitrogen). […] Finally, cell death and ROS production were determined with the fluorescent probes PI (1 μg/mL) and H2DCFDA (10 μg/mL), respectively.
as §1

SMILES: C#CCn1nc(/C=C/c2ccc(OC)cc2)oc1=O [4e, 5-[(E)-2-(4-Methoxyphenyl)ethenyl]-3-(prop-2-yn-1-yl)-1,3,4-oxadiazol-2(3H)-one]
- ORAC (trolox equiv) [1]: <0.1 trolox equiv
- TuJ-1 and MAP-2 marked cells (adult mice NSCs): clearly increased; also recorded: highest expression of young cells (TuJ-1) and mature neurons (MAP-2)
- cell migration distance (adult mice NSCs): extended; also recorded: greatest distance of cell migration
- solubility thermodynamic (Thermodynamic solubility): 76.1 µM and 19.5 µg/mL
- GSH adduct formation [2]: no peaks corresponding to GS-4e adducts were found
- ROS production (H2DCFDA) (mouse hippocampal slices): reduced ROS production to basal levels
- cell viability (MTT) (mouse hippocampal slices): significantly increased the cell viability to almost basal levels
- iNOS level (iNOS): reduced to basal levels
- ROS production (H2DCFDA) [3]: significantly decrease ROS production to basal levels; also recorded: significantly reduced ROS production
- cell death (PI mean intensity) [3]: reduced hippocampal death with a statistical trend (p = 0.07); also recorded: reduce cell death; although the differences were not statistically significant
